Target: Human immunodeficiency virus type 1 protease (Human immunodeficiency virus 1, UniProt Q72874)
Assay: In vitro inhibitory activity against purified HIV-1 protease at a pH of 4.7 and a final enzyme concentration of 0.45-1.1 nM

CC(C)c1ccccc1SC1=C(O)OC(CCCC(=O)N(C)Cc2ccccc2)(c2ccccc2)CC1=O (stereo not given)
IC50: 676 nM

CC(C)c1ccccc1SC1=C(O)OC(CCCC(=O)Nc2ccccc2)(c2ccccc2)CC1=O (stereo not given)
IC50: 429 nM

CC(C)c1ccccc1SC1=C(O)OC(CCCC(=O)NCc2ccccc2)(c2ccccc2)CC1=O (stereo not given)
IC50: 81 nM

CC(C)c1ccccc1SC1=C(O)OC(CCCCC(=O)NCCc2ccccc2)(c2ccccc2)CC1=O (stereo not given)
IC50: 71 nM

CC(C)c1ccccc1SC1=C(O)OC(CCC(=O)N2CCNCC2)(c2ccccc2)CC1=O (stereo not given)
IC50: 1110 nM

CC(C)c1ccccc1SC1=C(O)OC(CCCCC(=O)N2CCOCC2)(c2ccccc2)CC1=O (stereo not given)
IC50: 195 nM

CC(C)c1ccccc1SC1=C(O)OC(CCCCC(=O)N2CCN(C(=O)OC(C)(C)C)CC2)(c2ccccc2)CC1=O (stereo not given)
IC50: 127 nM

CC(C)c1ccccc1SC1=C(O)OC(CCCC(N)=O)(c2ccccc2)CC1=O (stereo not given)
IC50: 101 nM

CC(C)c1ccccc1SC1=C(O)OC(CCCC(=O)NCCc2ccccc2)(c2ccccc2)CC1=O (stereo not given)
IC50: 146 nM

CC(C)c1ccccc1SC1=C(O)OC(CCCC(=O)N2CCSCC2)(c2ccccc2)CC1=O (stereo not given)
IC50: 285 nM

CC(C)c1ccccc1SC1=C(O)OC(CCCCC(=O)N2CCSCC2)(c2ccccc2)CC1=O (stereo not given)
IC50: 583 nM

CC(C)c1ccccc1SC1=C(O)OC(CCCC(=O)N2CCOCC2)(c2ccccc2)CC1=O (stereo not given)
IC50: 186 nM

CC(C)c1ccccc1SC1=C(O)OC(CCCCC(N)=O)(c2ccccc2)CC1=O (stereo not given)
IC50: 92 nM

CCCCCC1(c2ccccc2)CC(=O)C(Sc2ccccc2C(C)C)=C(O)O1 (stereo not given)
IC50: 88 nM

CC(C)c1ccccc1SC1=C(O)OC(CCCCC(=O)NCc2ccccc2)(c2ccccc2)CC1=O (stereo not given)
IC50: 26 nM

CC(C)c1ccccc1SC1=C(O)OC(CCCC(=O)N2CCN(C(=O)OC(C)(C)C)CC2)(c2ccccc2)CC1=O (stereo not given)
IC50: 124 nM

CC(C)c1ccccc1SC1=C(O)OC(CCCCC(=O)O)(c2ccccc2)CC1=O (stereo not given)
IC50: 1.8 nM

CC(C)c1ccccc1SC1=C(O)OC(CCCC(=O)N(C)CCc2ccccc2)(c2ccccc2)CC1=O (stereo not given)
IC50: 216 nM

CC(C)c1ccccc1SC1=C(O)OC(CCC(=O)N2CCN(C(=O)OC(C)(C)C)CC2)(c2ccccc2)CC1=O (stereo not given)
IC50: 1270 nM

CC(C)c1ccccc1SC1=C(O)OC(CCCC(=O)N(C)c2ccccc2)(c2ccccc2)CC1=O (stereo not given)
IC50: 624 nM

CC(C)c1ccccc1SC1=C(O)OC(CCC(=O)N2CCOCC2)(c2ccccc2)CC1=O (stereo not given)
IC50: 2440 nM

CC(C)c1ccccc1SC1=C(O)OC(CCCC(=O)N2CCNCC2)(c2ccccc2)CC1=O (stereo not given)
IC50: 564 nM

CC(C)c1ccccc1SC1=C(O)OC(CCCCC(=O)N2CCNCC2)(c2ccccc2)CC1=O (stereo not given)
IC50: 234 nM

CC(C)c1ccccc1SC1=C(O)OC(CCCCC(=O)Nc2ccccc2)(c2ccccc2)CC1=O (stereo not given)
IC50: 91 nM

CC(C)c1ccccc1SC1=C(O)OC(CCC(=O)N2CCSCC2)(c2ccccc2)CC1=O (stereo not given)
IC50: 1100 nM

— ChEMBL document CHEMBL1152102, “6-Phenyl-6-alkylamido-5,6-dihydro-2H-pyran-2-ones: novel HIV protease inhibitors” (Bioorg Med Chem Lett, 1996)
